# According to patent US10532053B2, “Histone deacetylase inhibitor, and preparation method and use thereof” (GUANGDONG ZHONGSHENG PHARMACEUTICAL CO., LTD, priority 2015, dated 2020):
# Where two headings read alike, the source gives them in different places.
# Experiments:
# [1] = cited from earlier work
# HDAC8 = biological target: T1, HDAC8 (Homo sapiens, UniProt Q9BY41); assay: HDAC inhibitory activity, fluorescence-coupled acetylated peptide substrate assay
# T1 sequence (Q9BY41 1-377): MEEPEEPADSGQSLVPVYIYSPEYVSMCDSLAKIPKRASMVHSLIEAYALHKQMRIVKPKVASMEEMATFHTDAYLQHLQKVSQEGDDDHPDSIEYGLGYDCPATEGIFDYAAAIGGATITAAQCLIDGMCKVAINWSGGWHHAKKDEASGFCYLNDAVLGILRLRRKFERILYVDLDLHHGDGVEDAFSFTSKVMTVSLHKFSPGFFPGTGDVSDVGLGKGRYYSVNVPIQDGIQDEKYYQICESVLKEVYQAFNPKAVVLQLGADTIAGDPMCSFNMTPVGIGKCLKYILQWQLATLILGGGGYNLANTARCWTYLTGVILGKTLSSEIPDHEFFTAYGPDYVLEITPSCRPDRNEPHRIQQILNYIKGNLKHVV
# Procedure: (§2) The HDAC inhibitory activity was determined by fluorescence-coupled acetylated peptide substrate assay (Lys-Ac-AMC). HDAC1 protein was purchased from BPS Bioscience, and the reaction buffer system was a modified tris(hydroxymethyl)aminomethane buffer (pH 7.0). The small molecule compounds of the present invention were prepared by being dissolved in 100% DMSO. HDAC was prepared in a buffer at a certain concentration as an enzyme solution; trypsin and fluorescent group 4-amino-7-coumarin coupled-acetylated peptide (Ac-peptide) substrate were prepared in a buffer at a certain concentration as a substrate solution. The compounds were added into the reaction wells in a 384-well plate at a designed concentration of 10 μM, 1 μM, 0.5 μM, 0.1 μM, 0.05 μM, 0.01 μM, 0.005 μM, 0.001 μM, and 0.00005 μM, respectively, and then 15 μl of the HDAC solution was added into the reaction wells (15 μl of blank buffer to the control well). […] The results were analyzed by GraphPad Prism software and IC50 values were calculated according to the formula: Y=Background Data+(Top Data−Background Data)/(1+10^((Log IC50−X) a curve slope)), where Y: the inhibition rate (%) and X: the concentration of the compound.
# HDAC1 = biological target: T2, HDAC1 (Homo sapiens, UniProt Q13547); assay: HDAC inhibitory activity, fluorescence-coupled acetylated peptide substrate assay (Lys-Ac-AMC); assay type: biochemical
# T2 construct: purchased BPS Bioscience
# Procedure: as §2
# HDAC6 = biological target: T3, HDAC6 (Homo sapiens, UniProt Q9UBN7); assay: HDAC inhibitory activity, fluorescence-coupled acetylated peptide substrate assay; assay type: biochemical
# T3 sequence (Q9UBN7 1-1215): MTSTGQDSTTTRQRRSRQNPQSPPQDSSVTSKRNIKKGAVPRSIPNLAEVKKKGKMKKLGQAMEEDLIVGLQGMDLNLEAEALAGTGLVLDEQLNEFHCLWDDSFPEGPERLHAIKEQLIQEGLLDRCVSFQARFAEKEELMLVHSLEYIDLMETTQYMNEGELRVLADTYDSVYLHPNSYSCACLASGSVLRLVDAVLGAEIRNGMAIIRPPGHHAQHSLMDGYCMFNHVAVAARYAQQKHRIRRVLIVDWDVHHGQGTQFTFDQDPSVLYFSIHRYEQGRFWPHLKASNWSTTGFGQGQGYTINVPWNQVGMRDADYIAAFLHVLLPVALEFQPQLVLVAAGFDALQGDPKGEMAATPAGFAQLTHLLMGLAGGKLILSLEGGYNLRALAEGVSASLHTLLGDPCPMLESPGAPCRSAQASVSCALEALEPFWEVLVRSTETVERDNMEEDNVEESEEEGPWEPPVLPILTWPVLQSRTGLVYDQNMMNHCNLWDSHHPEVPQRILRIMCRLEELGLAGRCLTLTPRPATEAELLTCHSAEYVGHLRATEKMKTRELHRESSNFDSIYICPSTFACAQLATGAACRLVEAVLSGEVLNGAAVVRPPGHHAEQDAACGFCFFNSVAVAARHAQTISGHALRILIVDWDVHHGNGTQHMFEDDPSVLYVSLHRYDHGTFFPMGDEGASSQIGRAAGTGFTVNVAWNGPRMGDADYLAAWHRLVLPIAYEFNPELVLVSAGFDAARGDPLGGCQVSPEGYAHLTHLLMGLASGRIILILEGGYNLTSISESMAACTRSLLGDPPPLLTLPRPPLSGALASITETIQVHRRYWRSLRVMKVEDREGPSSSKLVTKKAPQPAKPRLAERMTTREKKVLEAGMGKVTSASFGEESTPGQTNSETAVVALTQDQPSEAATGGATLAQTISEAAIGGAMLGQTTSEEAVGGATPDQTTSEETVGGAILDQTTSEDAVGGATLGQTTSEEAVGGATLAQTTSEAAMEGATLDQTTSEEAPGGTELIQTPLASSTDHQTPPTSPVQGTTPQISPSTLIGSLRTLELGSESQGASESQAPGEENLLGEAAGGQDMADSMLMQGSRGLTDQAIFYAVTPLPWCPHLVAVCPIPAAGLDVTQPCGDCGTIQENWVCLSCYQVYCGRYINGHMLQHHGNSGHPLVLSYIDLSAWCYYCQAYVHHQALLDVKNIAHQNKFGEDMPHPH
# Procedure: as §2
# [2] = test system: Human cervical cancer cell Hela; assay: Cell proliferative activity (MTT / cck-8); assay type: cell-based; settings: incubated for 96 hours, read-out: Half-Inhibitory Concentration IC50 Human cervical cancer cell Hela
# Procedure: (§1) Tumor cell line A375: human melanoma cell; H460: lung adenocarcinoma cell; Hela: human cervical cancer cell; HepG2: human liver cancer cell; and SKOV-3: human ovarian cancer cell, were all purchased from ATCC and cultured to logarithmic phase according to the cultivation protocol recommended by ATCC. The cells in the logarithmic phase were plated onto a 96-well plate at 2000-3000 cells/well; in the case of adherent cells, the cells should be adherent to the wall. […] After that, the cell proliferative activity was determined by MTT assay for the tumor cells representing the solid tumor model and by cck-8 assay for the tumor cells representing the hematologic tumor model.
# [3] = test system: Human lung cancer cell H460; assay: Cell proliferative activity (MTT / cck-8); assay type: cell-based; settings: NCI-H460, incubated for 96 hours, read-out: Half-Inhibitory Concentration IC50 Human lung cancer cell H460
# Procedure: as §1
# [4] = test system: Human ovarian cancer cell SKOV-3; assay: Cell proliferative activity (MTT / cck-8); assay type: cell-based; settings: SK-OV-3, incubated for 96 hours, read-out: Half-Inhibitory Concentration IC50 Human ovarian cancer cell SKOV-3
# Procedure: as §1
# [5] = test system: Human liver cancer cell HepG2; assay: Cell proliferative activity (MTT / cck-8); assay type: cell-based; settings: incubated for 96 hours, read-out: Half-Inhibitory Concentration IC50 Human liver cancer cell HepG2
# Procedure: as §1
# Human melanoma A375 = assay: Cell proliferative activity (MTT / cck-8); assay type: cell-based; settings: A-375, incubated for 96 hours, read-out: Half-Inhibitory Concentration IC50 Human melanoma A375
# Procedure: as §1
# HCT116 cells = assay: Therapeutic effect on the colon cancer HCT116 model (intravenous); settings: for survival time of mice: 9 times, vs blank control, P<0.01; for effect prolonging the survival time compared with positive control group: SAHA 50 mg/kg intraperitoneally
# T2 sequence (Q13547 whole entry): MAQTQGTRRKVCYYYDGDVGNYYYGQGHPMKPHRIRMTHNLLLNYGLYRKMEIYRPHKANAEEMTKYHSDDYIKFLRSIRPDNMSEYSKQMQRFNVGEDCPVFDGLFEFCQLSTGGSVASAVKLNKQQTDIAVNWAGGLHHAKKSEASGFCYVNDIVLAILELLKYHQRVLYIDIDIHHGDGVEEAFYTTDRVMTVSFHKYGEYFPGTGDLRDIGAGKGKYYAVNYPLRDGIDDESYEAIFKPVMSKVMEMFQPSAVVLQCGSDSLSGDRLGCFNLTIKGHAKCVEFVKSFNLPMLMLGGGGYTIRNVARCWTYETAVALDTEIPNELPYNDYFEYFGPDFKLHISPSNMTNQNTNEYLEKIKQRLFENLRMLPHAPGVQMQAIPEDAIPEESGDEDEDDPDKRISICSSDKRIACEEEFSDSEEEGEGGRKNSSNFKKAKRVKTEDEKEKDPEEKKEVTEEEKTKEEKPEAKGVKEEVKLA
"IC50 (HDAC8; IC50 HDAC8, Table 2) [nM]",IC50 (HDAC1; Table 2) [nM],IC50 (HDAC6; Table 2) [nM],IC50 [2] [nM],IC50 [3] [nM],IC50 [4] [nM],IC50 [5] [nM],IC50 (Human melanoma A375) [nM],Molecule,"elimination half-life in human body ([1]; human, clinical trials) [h]","IC50 (HDAC8; read-out: IC50 HDAC8, Table 3) [nM]",IC50 (HDAC1; Table 3) [nM],IC50 (HDAC6; Table 3) [nM],Selection Ratio HDAC1/6 (HDAC6; ratio of IC50 HDAC1 to HDAC6),Selection Ratio HDAC8/6 (HDAC6; ratio of IC50 HDAC8 to HDAC6),survival time of mice (HCT116 cells; 50 mg/kg intravenously once every other day),effect prolonging the survival time compared with positive control group (HCT116 cells; 50 mg/kg intravenously),survival time of mice (HCT116 cells; 10 mg/kg intravenously once every other day),effect prolonging the survival time compared with positive control group (HCT116 cells; 10 mg/kg intravenously),incidence of medication-related adverse reactions above Phase III ([1]; clinical data),toxic side effects ([1]; clinical data)
,,,,,,,,Nc1ccccc1NC(=O)c1ccc(CNC(=O)OCc2cccnc2)cc1 [Entinostat],~100,,,,,,,,,,,
> 1000,100 to 1000,10 to 100,100 to 1000,100 to 1000,100 to 1000,100 to 1000,100 to 1000,"COc1ccc(N(C)c2nc(C)nc3ccccc23)cc1OCCCCCC(=O)NO [III-4, N-hydroxy-6-(2-methoxy-5-(methyl(2-methyl-4-quinazolinyl)amino)phenoxy)hexanamide]",,,,,,,,,,,,
> 1000,100 to 1000,10 to 100,100 to 1000,100 to 1000,100 to 1000,100 to 1000,> 1000,"Cc1nc(N(C)c2cccc(OCC(=O)NO)c2)c2ccccc2n1 [III-12, N-hydroxy-2-(3-(methyl(2-methyl-4-quinazolinyl)amino)phenoxy)acetamide]",,,,,,,,,,,,
> 1000,100 to 1000,100 to 1000,100 to 1000,100 to 1000,10 to 100,10 to 100,100 to 1000,"Cc1nc(N(C)c2cccc(OCCCC(=O)NO)c2)c2ccccc2n1 [III-13, N-hydroxy-4-(3-(methyl(2-methyl-4-quinazolinyl)amino)phenoxy)butanamide]",,,,,,,,,,,,
> 1000,100 to 1000,100 to 1000,10 to 100,100 to 1000,10 to 100,10 to 100,100 to 1000,"Cc1nc(N(C)c2cccc(OCCCCC(=O)NO)c2)c2ccccc2n1 [III-14, N-hydroxy-5-(3-(methyl(2-methyl-4-quinazolinyl)amino)phenoxy)pentanamide]",,,,,,,,,,,,
> 1000,10 to 100,10 to 100,100 to 1000,100 to 1000,100 to 1000,100 to 1000,> 1000,"Cc1nc(N(C)c2cccc(OCCCCCC(=O)NO)c2)c2ccccc2n1 [III-15, N-hydroxy-6-(3-(methyl(2-methyl-4-quinazolinyl)amino)phenoxy)hexanamide]",,,,,,,,,,,,
> 1000,> 1000,> 1000,> 1000,100 to 1000,100 to 1000,100 to 1000,100 to 1000,"CCCN(c1ccc(OC)c(OCCCC(=O)NO)c1)c1nc(C)nc2ccccc12 [IV-2, N-hydroxy-4-(2-methoxy-5-((2-methyl-4-quinazolinyl)(propyl)amino)phenoxy)butanamide]",,,,,,,,,,,,
> 1000,10 to 100,10 to 100,100 to 1000,> 1000,> 1000,100 to 1000,100 to 1000,"CCCCCN(c1ccc(OC)c(OCCCC(=O)NO)c1)c1nc(C)nc2ccccc12 [IV-4, N-hydroxy-4-(2-methoxy-5-((2-methyl-4-quinazolinyl)(pentyl)amino)phenoxy)butanamide]",,,,,,,,,,,,
,,,,,,,,FK228,,,,,,,,,,,up to 66%,cardiotoxicity

Molecule,"IC50 (HDAC8; IC50 HDAC8, Table 2) [nM]",IC50 (HDAC1; Table 2) [nM],IC50 (HDAC6; Table 2) [nM],IC50 [2] [nM],IC50 [3] [nM],IC50 [4] [nM],IC50 [5] [nM],IC50 (Human melanoma A375) [nM],"elimination half-life in human body ([1]; human, clinical trials) [h]","IC50 (HDAC8; read-out: IC50 HDAC8, Table 3) [nM]",IC50 (HDAC1; Table 3) [nM],IC50 (HDAC6; Table 3) [nM],Selection Ratio HDAC1/6 (HDAC6; ratio of IC50 HDAC1 to HDAC6),Selection Ratio HDAC8/6 (HDAC6; ratio of IC50 HDAC8 to HDAC6),survival time of mice (HCT116 cells; 50 mg/kg intravenously once every other day),effect prolonging the survival time compared with positive control group (HCT116 cells; 50 mg/kg intravenously),survival time of mice (HCT116 cells; 10 mg/kg intravenously once every other day),effect prolonging the survival time compared with positive control group (HCT116 cells; 10 mg/kg intravenously),incidence of medication-related adverse reactions above Phase III ([1]; clinical data),toxic side effects ([1]; clinical data)
"Cc1nc(N(C)c2ccc(OCCCC(=O)NO)cc2)c2ccccc2n1 [II-2, N-hydroxy-4-(4-(methyl(2-methyl-4-quinazolinyl)amino)phenoxy)butanamide]",> 1000,10 to 100,100 to 1000,100 to 1000,100 to 1000,10 to 100,10 to 100,100 to 1000,,1460,84,196,0.4,7.5,significantly prolonged the survival time of mice,superior to that of the positive control group,,,,
"COc1ccc(N(C)c2nc(C)nc3ccccc23)cc1OCC(=O)NO [III-1, N-hydroxy-2-(2-methoxy-5-(methyl(2-methyl-4-quinazolinyl)amino)phenoxy) acetamide]",> 1000,> 1000,> 1000,< 10,< 10,< 10,< 10,10 to 100,,,,,,,,,significantly prolonged the survival time of mice,superior to that of the positive control group,,
